24 molecules from US10047096B2, “Substituted pyridobenzodiazepinone-derivatives and use thereof” (Bayer Pharma Aktiengesellschaft, priority 2014, dated 2018) can be followed below.

Structures are written as SMILES.

Experiment [1] addresses pPDGFRβ in normal human dermal fibroblasts (NHDF) (Homo sapiens (Human), UniProt P09619). In words: Cellular pPDGFRβ inhibition assay. The experiment is classed as cell-based. Particulars: NHDF stimulated with 50 ng/ml PDGF-BB, 1 h. How it is done:
Thereafter, 50 ng/ml recombinant human PDGF-BB (R&D Systems, Cat. No. 220-BB-050) and a dilution series of the test substances to be examined in DMSO were added to the cells. The total volume per well was 100 μl. After incubation under the abovementioned conditions for one hour, the Opti-MEM® I Reduced Serum Medium was tapped out and discarded. Subsequently, the lysis buffer [Phospho PDGFRβ (Tyr751) Assay Whole Cell Lysate Kit, MSD, Cat. No. K150DVD-2] was made up according to the manufacturer's instructions and 70 μl of this mixture per well were added. The lysed cell samples were either stored at −20° C. or analysed immediately after the lysis in a Meso Scale SECTOR® Imager 2400 according to the abovementioned manufacturer's instructions. The measurement data were presented as percentage PDGFRβ stimulation compared to PDGF-BB-stimulated but substance-untreated cells. The IC50 values were calculated by employing the nonlinear regression (curve fit) function of GraphPad Prism 6 (La Jolla, Calif., USA).

The target in another experiment is human PDGFRβ (Homo sapiens (Human), UniProt P09619). As to the kind of experiment: PDGFRβ kinase assay (PDGFRβ-HTRF). The format is biochemical. Particulars: 10 μM ATP; some mean values from multiple determinations. A digest of the protocol:
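GST-fused human PDGFRβ fragment (R561-L1106) from Sf9 cells was preincubated 15 min with compound in 50 mM HEPES pH 7.5, 10 mM MgCl2, 2.5 mM DTT, 0.01% Triton X-100; substrate was biotinylated poly-Glu,Tyr (4:1).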

Sequence of human PDGFRβ (P09619 561-1106): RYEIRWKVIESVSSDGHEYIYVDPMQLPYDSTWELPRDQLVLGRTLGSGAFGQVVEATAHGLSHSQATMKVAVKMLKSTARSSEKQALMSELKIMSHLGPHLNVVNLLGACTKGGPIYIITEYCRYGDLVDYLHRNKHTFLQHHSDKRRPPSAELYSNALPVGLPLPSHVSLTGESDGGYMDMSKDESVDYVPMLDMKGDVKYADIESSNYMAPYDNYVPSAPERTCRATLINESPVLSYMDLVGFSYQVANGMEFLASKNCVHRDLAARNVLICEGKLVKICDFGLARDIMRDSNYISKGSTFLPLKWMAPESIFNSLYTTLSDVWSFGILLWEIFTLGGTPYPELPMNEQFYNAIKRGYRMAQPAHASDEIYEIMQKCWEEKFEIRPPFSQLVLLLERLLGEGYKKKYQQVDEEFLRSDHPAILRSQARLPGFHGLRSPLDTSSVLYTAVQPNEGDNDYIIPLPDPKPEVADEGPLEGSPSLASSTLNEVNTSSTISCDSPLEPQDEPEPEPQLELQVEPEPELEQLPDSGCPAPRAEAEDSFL
Sequence of pPDGFRβ in normal human dermal fibroblasts (NHDF) (P09619 33-1106): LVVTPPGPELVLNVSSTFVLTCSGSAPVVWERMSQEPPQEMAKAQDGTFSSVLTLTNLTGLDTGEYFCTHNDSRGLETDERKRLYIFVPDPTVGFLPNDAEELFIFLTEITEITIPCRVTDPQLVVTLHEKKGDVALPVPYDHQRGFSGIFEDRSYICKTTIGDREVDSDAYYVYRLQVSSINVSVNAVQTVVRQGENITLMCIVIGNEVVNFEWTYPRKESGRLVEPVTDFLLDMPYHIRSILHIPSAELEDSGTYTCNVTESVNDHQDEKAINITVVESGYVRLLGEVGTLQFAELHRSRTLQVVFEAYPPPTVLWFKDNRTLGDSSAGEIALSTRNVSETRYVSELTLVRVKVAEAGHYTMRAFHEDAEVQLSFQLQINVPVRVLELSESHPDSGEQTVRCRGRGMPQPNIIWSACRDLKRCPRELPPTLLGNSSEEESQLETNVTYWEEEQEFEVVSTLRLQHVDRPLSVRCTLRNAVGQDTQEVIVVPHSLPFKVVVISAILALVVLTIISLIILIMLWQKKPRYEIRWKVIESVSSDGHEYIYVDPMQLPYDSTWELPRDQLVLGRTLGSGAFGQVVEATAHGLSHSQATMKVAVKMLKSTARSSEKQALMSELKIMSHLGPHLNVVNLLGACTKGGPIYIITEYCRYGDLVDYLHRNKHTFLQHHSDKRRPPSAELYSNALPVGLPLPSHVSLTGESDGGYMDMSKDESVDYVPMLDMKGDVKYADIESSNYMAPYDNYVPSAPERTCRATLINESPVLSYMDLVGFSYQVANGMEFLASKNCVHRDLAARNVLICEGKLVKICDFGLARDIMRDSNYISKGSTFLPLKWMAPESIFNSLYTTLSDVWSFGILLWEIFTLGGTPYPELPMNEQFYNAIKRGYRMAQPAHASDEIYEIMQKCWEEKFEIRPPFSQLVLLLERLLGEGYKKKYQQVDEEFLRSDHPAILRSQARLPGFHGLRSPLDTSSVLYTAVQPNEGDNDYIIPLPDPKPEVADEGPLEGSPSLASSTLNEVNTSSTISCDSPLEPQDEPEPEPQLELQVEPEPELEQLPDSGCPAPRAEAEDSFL

As usually defined, the IC50 is the point on the concentration scale where inhibition reaches its midpoint. Turning to `CCOCCN(CC)Cc1ccc2c(c1)NC(=O)c1c(Nc3cc(O)c(C)cc3F)ccnc1N2` [Example 50, 8-{[(2-Ethoxyethyl) (ethyl)amino]methyl}-4-[(2-fluoro-5-hydroxy-4-methylphenyl)amino]-6,11-dihydro-5H-pyrido[2,3-b][1,5]benzodiazepin-5-one], the 50% inhibitory concentration (IC50) in experiment [1] amounted to 97.4 nM; against human PDGFRβ it was 1.13 nM.

As to `Cc1ccc(O)cc1Nc1ccnc2c1C(=O)Nc1cc(CNC(C)C)ccc1N2` [Example 19, 4-[(5-Hydroxy-2-methylphenyl)amino]-8-[(isopropylamino)methyl]-6,11-dihydro-5H-pyrido[2,3-b][1,5]benzodiazepin-5-one], the IC50 in experiment [1] was 40.9 nM; against human PDGFRβ, 2.02 nM.

As for `Cc1cc(F)c(Nc2ccnc3c2C(=O)Nc2cc(CN(C)CCN)ccc2N3)cc1O` [Example 209, 8-{[(2-Aminoethyl)(methyl)amino]methyl}-4-[(2-fluoro-5-hydroxy-4-methylphenyl)amino]-6,11-dihydro-5H-pyrido[2,3-b][1,5]benzodiazepin-5-one], the half-inhibitory concentration (IC50) in experiment [1] turned out to be 215 nM; at human PDGFRβ it was 0.739 nM.

Regarding `CCN(CC)Cc1ccc2c(c1)NC(=O)c1c(Nc3cc(O)c(C)cc3F)ccnc1N2` [Example 28, 8-[(Diethylamino)methyl]-4-[(2-fluoro-5-hydroxy-4-methylphenyl)amino]-6,11-dihydro-5H-pyrido[2,3-b][1,5]benzodiazepin-5-one], the IC50 in experiment [1] stood at 21.6 nM; against human PDGFRβ, 0.953 nM.

Regarding `Cc1cc(F)c(Nc2ccnc3c2C(=O)Nc2cc(CN4C[C@H](O)C[C@H]4CO)ccc2N3)cc1O` [Example 64, 4-[(2-Fluoro-5-hydroxy-4-methylphenyl)amino]-8-{[(2S,4R)-4-hydroxy-2-(hydroxymethyl)pyrrolidin-1-yl]methyl}-6,11-dihydro-5H-pyrido[2,3-b][1,5]benzodiazepin-5-one], the IC50 in experiment [1] amounted to 14.3 nM; at human PDGFRβ, 0.68 nM.

With `CCN(CCO)C(=O)c1ccc2c(c1)NC(=O)c1c(Nc3cc(O)c(C)cc3F)ccnc1N2` [Example 162, N-Ethyl-4-[(2-fluoro-5-hydroxy-4-methylphenyl)amino]-N-(2-hydroxyethyl)-5-oxo-6,11-dihydro-5H-pyrido[2,3-b][1,5]benzodiazepine-8-carboxamide], the figures for the IC50 (in experiment [1]; against human PDGFRβ) were 890 nM and 12.1 nM, respectively.

`CCN(CCOC)Cc1ccc2c(c1)NC(=O)c1c(Nc3cc(O)c(C)cc3F)ccnc1N2` [Example 55, 8-{[Ethyl(2-methoxyethyl)amino]methyl}-4-[(2-fluoro-5-hydroxy-4-methylphenyl)amino]-6,11-dihydro-5H-pyrido[2,3-b][1,5]benzodiazepin-5-one]: the half-maximal inhibitory concentration (IC50) in experiment [1] was 60.7 nM; on human PDGFRβ, 0.905 nM.

As to `Cc1cc(F)c(Nc2ccnc3c2C(=O)Nc2cc(CNC(CO)C(C)C)ccc2N3)cc1O` (racemic) [Example 75, rac-4-[(2-Fluoro-5-hydroxy-4-methylphenyl)amino]-8-{[(1-hydroxy-3-methylbutan-2-yl)amino]methyl}-6,11-dihydro-5H-pyrido[2,3-b][1,5]benzodiazepin-5-one], the half-maximal inhibitory concentration (IC50) in experiment [1] worked out at 43.9 nM; against human PDGFRβ it was 0.826 nM.

Regarding `Cc1cc(F)c(Nc2ccnc3c2C(=O)Nc2cc(CN4CCOCC4)ccc2N3)cc1O` [Example 29, 4-[(2-Fluoro-5-hydroxy-4-methylphenyl)amino]-8-(morpholin-4-ylmethyl)-6,11-dihydro-5H-pyrido[2,3-b][1,5]benzodiazepin-5-one], the half-inhibitory concentration (IC50) in experiment [1] amounted to 35.3 nM; on human PDGFRβ, 2.89 nM.

As to `Cc1cc(F)c(Nc2ccnc3c2C(=O)Nc2cc(CNC(CO)CO)ccc2N3)cc1O` [Example 78, 8-{[(1,3-Dihydroxypropan-2-yl)amino]methyl}-4-[(2-fluoro-5-hydroxy-4-methylphenyl)amino]-6,11-dihydro-5H-pyrido[2,3-b][1,5]benzodiazepin-5-one], the IC50 in experiment [1] worked out at 32.6 nM; at human PDGFRβ it was 0.974 nM.

With `Cc1cc(F)c(Nc2ccnc3c2C(=O)Nc2cc(CN[C@H]4CC[C@H](O)CC4)ccc2N3)cc1O` [Example 76, 4-[(2-Fluoro-5-hydroxy-4-methylphenyl)amino]-8-{[(trans-4-hydroxycyclohexyl)amino]methyl}-6,11-dihydro-5H-pyrido[2,3-b][1,5]benzodiazepin-5-one], the figures for the IC50 (in experiment [1]; against human PDGFRβ) were 11.3 nM and 1.58 nM, respectively.

Take `Cc1cc(F)c(Nc2ccnc3c2C(=O)Nc2cc(CNC4CC4)ccc2N3)cc1O` [Example 30, 8-[(Cyclopropylamino)methyl]-4-[(2-fluoro-5-hydroxy-4-methylphenyl)amino]-6,11-dihydro-5H-pyrido[2,3-b][1,5]benzodiazepin-5-one]: the figures for the half-maximal inhibitory concentration (IC50) (in experiment [1]; at human PDGFRβ) were 111 nM and 2.17 nM, respectively.

Consider `Cc1cc(F)c(Nc2ccnc3c2C(=O)Nc2cc(CN4CCCC4)ccc2N3)cc1O` [Example 32, 4-[(2-Fluoro-5-hydroxy-4-methylphenyl)amino]-8-(pyrrolidin-1-ylmethyl)-6,11-dihydro-5H-pyrido[2,3-b][1,5]benzodiazepin-5-one], for which the IC50 in experiment [1] was found to be 22.8 nM; against human PDGFRβ, 3.25 nM.

Turning to `Cc1cc(F)c(Nc2ccnc3c2C(=O)Nc2cc(CNC4CC(O)C4)ccc2N3)cc1O` (centres unmarked) [Example 187, 4-[(2-Fluoro-5-hydroxy-4-methylphenyl)amino]-8-{[(3-hydroxycyclobutyl)amino]methyl}-6,11-dihydro-5H-pyrido[2,3-b][1,5]benzodiazepin-5-one], the IC50 in experiment [1] was determined as 41.3 nM; against human PDGFRβ, 1.51 nM.

Turning to `CCN(Cc1ccc2c(c1)NC(=O)c1c(Nc3cc(O)c(C)cc3F)ccnc1N2)C(C)C` [Example 51, 8-{[Ethyl(isopropyl)amino]methyl}-4-[(2-fluoro-5-hydroxy-4-methylphenyl)amino]-6,11-dihydro-5H-pyrido[2,3-b][1,5]benzodiazepin-5-one], the half-inhibitory concentration (IC50) in experiment [1] is 22.1 nM; at human PDGFRβ, 1.15 nM.

For the molecule `Cc1cc(F)c(Nc2ccnc3c2C(=O)Nc2cc(CN4CCN(CC(F)F)CC4)ccc2N3)cc1O` [Example 227, 8-{[4-(2,2-Difluoroethyl)piperazin-1-yl]methyl}-4-[(2-fluoro-5-hydroxy-4-methylphenyl)amino]-6,11-dihydro-5H-pyrido[2,3-b][1,5]benzodiazepin-5-one], the values for the 50% inhibitory concentration (IC50) (in experiment [1]; against human PDGFRβ) were 554 nM and 6.38 nM, respectively.

For the molecule `CCN(CC)Cc1ccc2c(c1)NC(=O)c1c(Nc3cc(O)c(Cl)cc3F)ccnc1N2` [Example 174, 4-[(4-Chloro-2-fluoro-5-hydroxyphenyl)amino]-8-[(diethylamino)methyl]-6,11-dihydro-5H-pyrido[2,3-b][1,5]benzodiazepin-5-one], the values for the IC50 (in experiment [1]; on human PDGFRβ) were 106 nM and 1.25 nM, respectively.

On to `Cc1ccc(O)cc1Nc1ccnc2c1C(=O)Nc1cc(CN3CCC(O)CC3)ccc1N2` [Example 42, 4-[(5-Hydroxy-2-methylphenyl)amino]-8-[(4-hydroxypiperidin-1-yl)methyl]-6,11-dihydro-5H-pyrido[2,3-b][1,5]benzodiazepin-5-one], for which the results for the half-maximal inhibitory concentration (IC50) (in experiment [1]; at human PDGFRβ) were 140 nM and 2.44 nM, respectively.

With `Cc1cc(F)c(Nc2ccnc3c2C(=O)Nc2cc(CN(C)CCO)ccc2N3)cc1O` [Example 198, 4-[(2-Fluoro-5-hydroxy-4-methylphenyl)amino]-8-{[(2-hydroxyethyl)(methyl)amino]methyl}-6,11-dihydro-5H-pyrido[2,3-b][1,5]benzodiazepin-5-one], the figures for the IC50 (in experiment [1]; at human PDGFRβ) were 49.8 nM and 0.962 nM, respectively.

Take `Cc1cc(F)c(Nc2ccnc3c2C(=O)Nc2cc(CN(C)C[C@H](C)O)ccc2N3)cc1O` [Example 202, 4-[(2-Fluoro-5-hydroxy-4-methylphenyl)amino]-8-({[(2S)-2-hydroxypropyl](methyl)amino}methyl)-6,11-dihydro-5H-pyrido[2,3-b][1,5]benzodiazepin-5-one]: the values for the IC50 (in experiment [1]; at human PDGFRβ) were 39.1 nM and 1.55 nM, respectively.

On human PDGFRβ, `Cc1ccc(O)cc1Nc1ccnc2c1C(=O)Nc1cc(CN3CCN(C)CC3)ccc1N2` [Example 43, 4-[(5-Hydroxy-2-methylphenyl)amino]-8-[(4-methylpiperazin-1-yl)methyl]-6,11-dihydro-5H-pyrido[2,3-b][1,5]benzodiazepin-5-one] showed an IC50 of 2.3 nM.

Consider `Cc1cc(F)c(Nc2ccnc3c2C(=O)Nc2cc(CN4CCCC(O)(c5ccccc5)C4)ccc2N3)cc1O` (racemic) [Example 73, rac-4-[(2-Fluoro-5-hydroxy-4-methylphenyl)amino]-8-[(3-hydroxy-3-phenylpiperidin-1-yl)methyl]-6,11-dihydro-5H-pyrido[2,3-b][1,5]benzodiazepin-5-one], for which the IC50 at human PDGFRβ was 1.98 nM. The IC50 values of the last two molecules are within 1.5-fold of each other.

`Cc1cc(F)c(Nc2ccnc3c2C(=O)Nc2cc(CN4CCC[C@H](N)C4)ccc2N3)cc1O` [Example 219, 8-{[(3S)-3-Aminopiperidin-1-yl]methyl}-4-[(2-fluoro-5-hydroxy-4-methylphenyl)amino]-6,11-dihydro-5H-pyrido[2,3-b][1,5]benzodiazepin-5-one] had a 50% inhibitory concentration (IC50) at human PDGFRβ of 1.48 nM.

`Cc1cc(F)c(Nc2ccnc3c2C(=O)Nc2cc(CN[C@H]4C[C@H](C(=O)O)C4)ccc2N3)cc1O` [Example 195, trans-3-[({4-[(2-Fluoro-5-hydroxy-4-methylphenyl)amino]-5-oxo-6,11-dihydro-5H-pyrido[2,3-b][1,5]benzodiazepin-8-yl}methyl)amino]cyclobutanecarboxylic acid] yielded an IC50 on human PDGFRβ of 1.56 nM.
